From US20160113931A1, “Method of treating and/or preventing neurodegenerative diseases” (University of Macau, priority 2014, published 2016)
“Also recorded” adds a separate entry of the source.

Key:
SH-SY5Y cells = assay: Cytotoxicity of BHDPC in SH-SY5Y cells (MTT assay); assay type: cell-based, human; conditions: BHDPC 3 to 30 μM, 24 h
Method: The human neuroblastoma SH-SY5Y cells were purchased from America Tissue Type Collection. The cells were maintained in DMEM medium supplemented with 10% fetal bovine serum and penicillin/streptomycin (100 U/mL; 100 μg/mL) in a 37° C., 5% CO2 incubator. All experiments were carried out 48 hours after the cells were seeded.
(§1) The percentage of surviving cells was estimated by determining the activity of mitochondrial dehydrogenases with 3(4,5-dimethylthiazol-2-yl)-2,5-diphenyltetrazolium bromide (MTT) assay. After drug treatment, cells were incubated at 37° C. for 4 h in 0.5 mg/mL MTT solution. The medium was then removed, and 100 μL of DMSO was added to each well to dissolve the violet formazan crystals. The absorbance of the samples was measured at a wavelength of 570 nm with 655 nm as a reference wavelength. All values were normalized to the control groups.
To evaluate the cytotoxicity of BHDPC, SH-SY5Y cells were incubated with various concentrations of BHDPC for 24 h and the cell viability was determined using MTT assay.

[1] = test system: cerebellar granule neurons (CGNs); assay: MPP+-induced neurotoxicity in primary cerebellar granule neurons (MTT assay); assay type: cell-based, mice; conditions: 10 and 30 μM, 2 h pre-treatment, 40 μM MPP+ 24 h
Method: (§2) Cerebellar tissue slice were treated with 30 μM BHDPC with or without MPP^+ for 72 h and then were stained with PI.
as §1
Rat CGNs were prepared from 8-day-old Sprague-Dawley rats (The Animal Care Facility, The Hong Kong Polytechnic University) as described in our previous publication. Briefly, neurons were seeded at a density of 2.7×10^5 cells/ml in basal modified Eagle's medium (Invitrogen) containing 10% fetal bovine serum, 25 mM KCl, 2 mM glutamine, and penicillin (100 units/ml)/streptomycin (100 μg/ml). […]
To further confirm the effect of BHDPC on primary neurons, mice cerebellar granule neurons were treated with BHDPC at the indicated concentrations for 2 hours and then exposed to 40 μM MPP^+. Cell viability was measured by the MTT assay at 24 hours after the MPP^+ challenge.

cerebellar tissue slices = assay: MPP+-induced cell death in cerebellar tissue slice culture (PI and NeuN staining); assay type: cell-based, rat; conditions: 30 μM, MPP+ 3 days
Method: as §2
Following decapitation, brains of post-natal Day 9-10 SD rat were dissected out and sagittal slices (300 μm) of the cerebellum were immediately cut using a McIlwain tissue chopper, the slices were then isolated in Eagle's medium with Earle's salts medium (MEM) on ice and then placed on Millipore Millicell-CM™ organotypic culture inserts in pre-warmed medium containing MEM, Earle's balanced salt solution, heat-inactivated horse serum, GlutaMAX™, Fungizone®, and penicillin-streptomycin (each from Invitrogen), and glucose (Sigma). […]
After 3-4 days treatment of MPP^+ together with BHDPC, slices were fixed with 4% paraformaldehyde and then stained by immunohistochemistry. […] Three to four separate slice isolations (about 4-5 pups/isolation) were used, with 3-5 slices analysed from each isolation for each factor and dose.
Slices were fixed with 4% paraformaldehyde at room temperature for 1 hour, blocked with 5% donkey serum, 0.3% Triton™ X-100, and then incubated in primary antibodies for 2 days at 4° C. […] Confocal z-stacks were acquired (at 1.3 μm intervals and 10-15 images were acquired per stack) with a Leica SPE confocal microscope and images analysed using NIH ImageJ. […]

ROCK2 = ROCK2 (Homo sapiens, UniProt O75116); assay: Kinase activity assay ROCK2; assay type: biochemical; conditions: read-out: ROCK 2 IC50
Text: ROCK has two isoforms (ROCK1 and ROCK2) sharing the same downstream proteins. Bioassay and molecular docking are used to compare the characteristics of BHDPC on ROCK. […] Through molecular docking and molecular dynamics simulation, the interaction between the inhibitor and ROCK1 was shown in FIG. 17.

ROCK2, sequence (O75116 whole entry, species assumed, canonical isoform): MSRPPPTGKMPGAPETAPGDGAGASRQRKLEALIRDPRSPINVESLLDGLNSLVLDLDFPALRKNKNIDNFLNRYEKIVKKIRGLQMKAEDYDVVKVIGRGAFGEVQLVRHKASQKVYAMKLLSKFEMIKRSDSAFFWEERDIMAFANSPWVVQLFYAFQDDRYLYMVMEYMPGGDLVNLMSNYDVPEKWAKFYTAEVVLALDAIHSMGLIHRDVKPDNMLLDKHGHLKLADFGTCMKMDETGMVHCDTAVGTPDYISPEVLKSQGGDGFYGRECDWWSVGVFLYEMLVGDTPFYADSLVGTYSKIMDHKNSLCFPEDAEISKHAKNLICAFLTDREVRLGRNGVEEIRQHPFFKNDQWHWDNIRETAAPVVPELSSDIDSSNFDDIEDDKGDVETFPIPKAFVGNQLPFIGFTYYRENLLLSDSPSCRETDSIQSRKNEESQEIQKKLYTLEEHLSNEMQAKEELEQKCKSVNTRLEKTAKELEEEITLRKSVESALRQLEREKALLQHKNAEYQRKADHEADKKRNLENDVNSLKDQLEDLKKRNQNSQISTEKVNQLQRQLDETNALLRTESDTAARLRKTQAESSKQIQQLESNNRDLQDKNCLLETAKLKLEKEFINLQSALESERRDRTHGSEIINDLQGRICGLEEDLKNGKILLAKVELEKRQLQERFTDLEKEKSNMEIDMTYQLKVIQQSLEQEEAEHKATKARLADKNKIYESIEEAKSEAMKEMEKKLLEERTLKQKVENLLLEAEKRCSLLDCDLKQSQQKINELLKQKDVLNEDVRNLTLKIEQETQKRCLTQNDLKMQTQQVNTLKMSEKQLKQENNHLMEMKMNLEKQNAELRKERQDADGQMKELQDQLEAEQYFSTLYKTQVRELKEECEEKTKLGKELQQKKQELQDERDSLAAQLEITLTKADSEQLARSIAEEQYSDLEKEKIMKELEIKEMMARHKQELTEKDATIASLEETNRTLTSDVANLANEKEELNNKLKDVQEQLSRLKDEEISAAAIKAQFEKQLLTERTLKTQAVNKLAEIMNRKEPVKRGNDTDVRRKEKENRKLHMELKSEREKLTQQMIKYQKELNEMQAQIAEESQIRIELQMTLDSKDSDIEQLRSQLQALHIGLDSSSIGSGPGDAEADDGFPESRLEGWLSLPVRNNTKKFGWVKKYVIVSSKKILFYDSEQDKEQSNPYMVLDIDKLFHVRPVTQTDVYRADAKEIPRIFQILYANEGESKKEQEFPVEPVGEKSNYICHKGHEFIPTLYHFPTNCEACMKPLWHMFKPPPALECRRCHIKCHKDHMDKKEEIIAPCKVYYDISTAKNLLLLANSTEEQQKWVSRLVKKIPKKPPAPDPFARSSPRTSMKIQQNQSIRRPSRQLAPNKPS

Structure (SMILES): COc1cc(C2C(C(=O)OCc3ccccc3)=C(C)Nc3nnnn32)ccc1O (centres unmarked) [BHDPC, benzyl 7-(4-hydroxy-3-methoxyphenyl)-5-methyl-4,7-dihydrotetrazolo[1,5-a]pyrimidine-6-carboxylate]
- cytotoxicity (cell viability, MTT) (SH-SY5Y cells): did not cause any cytotoxicity
- MPP+-induced neuronal death (cell viability, MTT) [1]: reduced MPP^+-induced dopaminergic neuronal death; also recorded: prevented MPP^+-induced neuronal death
- MPP+-induced CNS cells death and neurons death in brain slices (cerebellar tissue slices): prevented MPP^+-induced neuronal death
- MPP+-induced CNS cells death and neurons death in brain slices (cerebellar tissue slices; listed as BHDPCs): attenuated
- IC50 (ROCK2): 408 µM
